Source: ChEMBL document CHEMBL1201862, “PubChem BioAssay data set” (2004)
Active and inactive are the calls of the source.

Tests used:
[1] = target: T1, Scavenger receptor class B member 1 (Mus musculus, UniProt Q61009); experiment: inhibitors of SR-BI dependent HDL uptake, dose response, ldlA[mSR-BI] CHO cells, fluorescence plate reader, dry powder, set 9 (AID 623880); assay type: functional, cell-based
[2] = target: T1, Scavenger receptor class B member 1; experiment: inhibitors of SR-BI-mediated HDL uptake, dose response, cell-based, ldlA[mSR-BI] CHO, DiI fluorescence, dry powder, set 10 (AID 624029); assay type: functional
[3] = reduction of Shn3 3'UTR firefly luciferase signal, dose response, Schnurri-3 inhibitor project, cell-based, Clone20 osteoblasts, cherry-pick, set 2 (AID 720490); assay type: functional;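 also: actives lower the luminescence signal as inhibitors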
[4] = HEK293T cytotoxicity, dose response, cytotoxicity control for miR-122 modulator project, cell-based, inhibitor set, cherry-pick, set 2 (AID 720697); assay type: functional
[5] = growth suppression of beta-catenin-knockout colon cells, dose response, cell-based, HCT116, human colon tumor (AID 1045); assay type: functional;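 also: HCT116 colon tumor cells with beta catenin knocked out; cells exposed to compound for 60 hours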
[6] = control 3'UTR Renilla luciferase suppression, dose response, counter-screen for Shn3 inhibitor project, cell-based, Clone20-Shn3RL, cherry-picked (AID 624133); assay type: functional
[7] = HEK293T cytotoxicity, dose response, cytotoxicity control for miR-122 modulator project, cell-based, activator set, cherry-pick (AID 720690); assay type: functional;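 also: HEK293T human cells scored for general mammalian cytotoxicity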
[8] = target: T2, Ubiquitin-conjugating enzyme E2 N (Homo sapiens, UniProt P61088); assay type: functional;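 also: Dose-response confirmation in a TR-FRET assay detecting UBC13-driven polyubiquitin chain formation, inhibition measured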
T2 sequence (P61088 whole entry): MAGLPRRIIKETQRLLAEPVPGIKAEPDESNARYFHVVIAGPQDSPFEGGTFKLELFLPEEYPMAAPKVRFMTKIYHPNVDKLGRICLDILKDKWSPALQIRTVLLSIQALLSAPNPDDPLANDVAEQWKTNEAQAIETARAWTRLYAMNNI

[9] = inhibitors of control Renilla luciferase reporter, dose response, counter-screen for Shn3 3'UTR targeting project, Clone20-Shn3RL cells, dual-Glo, cherry-pick, set 2 (AID 720724); assay type: functional, cell-based; settings: Dual-Go Shn3RL
[10] = growth suppression of PTEN-null colon cells, dose response, cell-based, HCT116 PTEN knockout (AID 1047); assay type: functional;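 also: HCT116 colon tumor cells with PTEN knocked out; cells exposed to compound for 60 hours before readout; potency for loss of cell viability measured by luminescence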
[11] = HepG2 cell cytotoxicity, dose response, cytotoxicity control for Shn3 inhibitor project, CellTiter-Glo, cherry-picked (AID 624134); assay type: functional, cell-based
INS1 = experiment: beta cell apoptosis inhibitors, cytokine rescue, dose response, luminescence, retest (AID 449756); assay type: functional, cell-based; settings: Rattus norvegicus;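 also: cell death triggered by IL-1 beta plus TNF-alpha plus IFN-gamma mixture; protective hits raise ATP signal compared with cytokine alone wells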
[12] = Shn3 3'UTR reporter inhibitors, dose response, cell-based, Clone20 osteoblasts, firefly luciferase, cherry-picked (AID 624132); assay type: functional;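 also: firefly luciferase luminescence from reporter carrying the Shn3 3'UTR in osteoblasts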
[13] = target: Matrix metalloproteinase-14 (Homo sapiens, UniProt P50281); experiment: Dose Response confirmation of uHTS hits for a small molecule inhibitors of MT1-MMP activation in a fluorescence assay set 2.; assay type: functional
HeLa = experiment: HeLa cell cytotoxicity, dose response, cytotoxicity control, 24 h, cherry-picked samples (AID 504726); assay type: functional, cell-based; settings: Homo sapiens;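 also: potency for cytotoxicity as loss of luminescence signal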
ORF 73 = target: T3, ORF 73 (Human herpesvirus 8, UniProt O40947); experiment: inhibitors of C-LANA binding to LBS DNA, dose response, biochemical, fluorescence polarization, cherry-picked samples (AID 504725); set-up: species or system Human gammaherpesvirus 8;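 also: fluorescence polarization of a labeled DNA duplex reporting LANA DNA binding; potency is for inhibitors that block LANA binding to the DNA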
T3 sequence (O40947 whole entry): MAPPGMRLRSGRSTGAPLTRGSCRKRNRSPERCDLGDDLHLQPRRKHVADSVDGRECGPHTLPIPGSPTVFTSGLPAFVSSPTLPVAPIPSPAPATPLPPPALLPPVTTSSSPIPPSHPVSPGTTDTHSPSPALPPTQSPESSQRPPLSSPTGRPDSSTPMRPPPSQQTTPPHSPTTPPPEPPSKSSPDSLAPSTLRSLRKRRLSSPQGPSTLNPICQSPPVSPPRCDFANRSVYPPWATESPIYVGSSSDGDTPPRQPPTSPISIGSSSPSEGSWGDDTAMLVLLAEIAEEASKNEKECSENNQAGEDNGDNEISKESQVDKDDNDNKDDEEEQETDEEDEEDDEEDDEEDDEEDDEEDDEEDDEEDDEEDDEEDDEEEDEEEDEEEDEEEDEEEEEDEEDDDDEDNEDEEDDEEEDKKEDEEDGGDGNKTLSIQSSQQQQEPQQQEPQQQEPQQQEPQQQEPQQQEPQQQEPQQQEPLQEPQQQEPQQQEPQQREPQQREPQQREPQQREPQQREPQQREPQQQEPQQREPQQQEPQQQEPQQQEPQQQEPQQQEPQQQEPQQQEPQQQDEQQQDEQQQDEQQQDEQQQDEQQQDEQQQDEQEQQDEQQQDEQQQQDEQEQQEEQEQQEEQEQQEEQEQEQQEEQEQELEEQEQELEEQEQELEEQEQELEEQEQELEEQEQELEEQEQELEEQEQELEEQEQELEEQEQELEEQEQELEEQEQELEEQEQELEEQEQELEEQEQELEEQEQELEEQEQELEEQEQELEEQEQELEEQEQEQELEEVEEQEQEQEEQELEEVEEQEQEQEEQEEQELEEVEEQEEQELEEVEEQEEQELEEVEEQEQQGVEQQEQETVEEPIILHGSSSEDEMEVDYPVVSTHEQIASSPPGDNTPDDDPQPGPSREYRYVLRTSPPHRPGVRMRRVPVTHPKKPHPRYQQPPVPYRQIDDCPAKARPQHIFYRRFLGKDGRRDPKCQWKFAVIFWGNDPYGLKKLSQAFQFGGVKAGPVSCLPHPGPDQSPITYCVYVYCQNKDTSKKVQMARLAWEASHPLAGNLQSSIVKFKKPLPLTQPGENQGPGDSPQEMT

[14] = target: T4, Histone-lysine N-methyltransferase NSD2 (Homo sapiens, UniProt O96028); assay type: biochemical
T4 sequence (O96028 whole entry): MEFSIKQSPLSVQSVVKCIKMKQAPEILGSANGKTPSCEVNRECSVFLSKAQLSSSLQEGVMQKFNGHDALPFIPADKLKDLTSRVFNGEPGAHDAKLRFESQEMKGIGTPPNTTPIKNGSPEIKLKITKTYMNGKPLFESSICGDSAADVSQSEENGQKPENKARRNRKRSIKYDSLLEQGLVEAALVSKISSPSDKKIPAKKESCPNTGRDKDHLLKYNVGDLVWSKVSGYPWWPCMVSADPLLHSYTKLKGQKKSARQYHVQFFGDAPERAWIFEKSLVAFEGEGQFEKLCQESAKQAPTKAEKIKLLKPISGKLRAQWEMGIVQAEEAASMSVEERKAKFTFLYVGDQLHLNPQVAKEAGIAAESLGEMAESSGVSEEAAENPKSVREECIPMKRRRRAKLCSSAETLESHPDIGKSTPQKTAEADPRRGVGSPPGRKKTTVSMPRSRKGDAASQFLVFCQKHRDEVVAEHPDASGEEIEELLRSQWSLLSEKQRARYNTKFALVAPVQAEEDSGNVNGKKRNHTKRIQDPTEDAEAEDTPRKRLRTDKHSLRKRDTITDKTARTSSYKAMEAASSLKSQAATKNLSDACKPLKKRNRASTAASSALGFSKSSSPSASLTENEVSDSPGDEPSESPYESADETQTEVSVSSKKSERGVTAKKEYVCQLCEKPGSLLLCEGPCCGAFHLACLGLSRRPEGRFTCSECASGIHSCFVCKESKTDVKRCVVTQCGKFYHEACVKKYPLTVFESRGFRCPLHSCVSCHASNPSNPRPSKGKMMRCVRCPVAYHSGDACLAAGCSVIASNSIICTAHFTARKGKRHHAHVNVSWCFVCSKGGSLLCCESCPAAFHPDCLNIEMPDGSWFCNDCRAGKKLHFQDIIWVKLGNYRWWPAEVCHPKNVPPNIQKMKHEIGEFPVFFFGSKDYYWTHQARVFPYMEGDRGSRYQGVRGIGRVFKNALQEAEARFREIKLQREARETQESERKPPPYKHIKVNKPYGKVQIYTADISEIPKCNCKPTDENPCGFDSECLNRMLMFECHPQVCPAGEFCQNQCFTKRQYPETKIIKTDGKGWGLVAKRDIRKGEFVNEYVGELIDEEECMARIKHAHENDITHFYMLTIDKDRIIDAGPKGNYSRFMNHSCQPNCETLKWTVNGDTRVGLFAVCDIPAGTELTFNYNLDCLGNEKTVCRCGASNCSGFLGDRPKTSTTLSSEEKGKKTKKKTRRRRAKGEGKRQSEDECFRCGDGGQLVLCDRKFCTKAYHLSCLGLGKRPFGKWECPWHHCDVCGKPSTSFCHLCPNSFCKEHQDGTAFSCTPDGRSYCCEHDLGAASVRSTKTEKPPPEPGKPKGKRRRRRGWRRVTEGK

Nonstructural protein 1 = Nonstructural protein 1 (Influenza A virus, UniProt Q194T2); assay type: functional, Influenza A virus (A/California/07/2009(H1N1))
Sequence of Nonstructural protein 1 (Q194T2 whole entry): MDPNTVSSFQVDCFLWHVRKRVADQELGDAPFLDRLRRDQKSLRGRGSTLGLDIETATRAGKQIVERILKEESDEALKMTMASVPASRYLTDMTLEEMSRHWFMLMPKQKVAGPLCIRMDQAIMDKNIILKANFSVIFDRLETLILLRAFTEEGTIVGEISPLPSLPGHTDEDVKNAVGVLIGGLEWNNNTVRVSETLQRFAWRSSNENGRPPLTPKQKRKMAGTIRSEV

Caspase-6 = target: T5, Caspase-6 (Homo sapiens, UniProt P55212); experiment: human caspase-6 inhibitors, dose response, biochemical, VEID-R110 fluorescence, cherry-pick (AID 720632)
T5 sequence (P55212 whole entry): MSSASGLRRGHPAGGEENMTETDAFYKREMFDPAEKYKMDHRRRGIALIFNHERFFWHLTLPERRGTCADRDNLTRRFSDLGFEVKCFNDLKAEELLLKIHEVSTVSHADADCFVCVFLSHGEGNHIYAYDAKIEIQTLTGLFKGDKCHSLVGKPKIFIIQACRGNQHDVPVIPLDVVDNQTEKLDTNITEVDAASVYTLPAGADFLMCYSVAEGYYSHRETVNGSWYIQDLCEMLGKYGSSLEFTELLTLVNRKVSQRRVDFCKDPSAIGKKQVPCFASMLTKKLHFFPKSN

[15] = HeLa cell cytotoxicity, dose response, cytotoxicity control for MgcRacGAP inhibitor project (AID 624300); assay type: functional
[16] = target: T6, Rac GTPase-activating protein 1 (Homo sapiens, UniProt Q9H0H5); experiment: MgcRacGAP GTPase-activating activity inhibitors, confirmation, biochemical, ADP Hunter fluorescence, primary and confirmatory (AID 624330); assay type: functional
T6 sequence (Q9H0H5 whole entry): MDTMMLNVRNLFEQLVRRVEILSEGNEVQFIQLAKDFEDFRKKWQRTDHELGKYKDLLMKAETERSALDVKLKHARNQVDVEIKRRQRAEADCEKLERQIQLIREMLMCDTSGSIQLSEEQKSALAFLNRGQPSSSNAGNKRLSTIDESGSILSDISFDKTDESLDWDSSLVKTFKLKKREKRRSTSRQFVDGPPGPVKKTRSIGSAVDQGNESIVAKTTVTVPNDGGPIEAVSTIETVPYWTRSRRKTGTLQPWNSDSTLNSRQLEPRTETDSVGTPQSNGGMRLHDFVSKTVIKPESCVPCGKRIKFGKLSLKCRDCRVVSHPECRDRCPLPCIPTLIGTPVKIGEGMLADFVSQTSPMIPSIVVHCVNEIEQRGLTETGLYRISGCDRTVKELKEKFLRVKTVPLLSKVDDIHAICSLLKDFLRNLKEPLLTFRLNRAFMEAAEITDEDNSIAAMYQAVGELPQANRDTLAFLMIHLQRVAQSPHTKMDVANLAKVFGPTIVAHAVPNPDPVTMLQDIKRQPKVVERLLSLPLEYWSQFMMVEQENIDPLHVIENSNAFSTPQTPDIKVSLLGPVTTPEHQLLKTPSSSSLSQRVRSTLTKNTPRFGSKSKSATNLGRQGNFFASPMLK

[17] = HEK293T cell cytotoxicity, dose response, cytotoxicity control, CellTiter-Glo luminescence, cherry-picked samples, set 4 (AID 743441); assay type: functional, cell-based; settings: HEK293
cells = settings: HEK293
[18] = target: 1-phosphatidylinositol 4,5-bisphosphate phosphodiesterase gamma-1 (Homo sapiens, UniProt P19174); experiment: Counterscreen for inhibitors of phospholipase C isozymes (PLC-B3): Fluorescence-based biochemical high throughput dose response assay to identify inhibitors of phospholipase C isozymes (PLC-gamma1).
Sequence of 1-phosphatidylinositol 4,5-bisphosphate phosphodiesterase gamma-1 (P19174 whole entry): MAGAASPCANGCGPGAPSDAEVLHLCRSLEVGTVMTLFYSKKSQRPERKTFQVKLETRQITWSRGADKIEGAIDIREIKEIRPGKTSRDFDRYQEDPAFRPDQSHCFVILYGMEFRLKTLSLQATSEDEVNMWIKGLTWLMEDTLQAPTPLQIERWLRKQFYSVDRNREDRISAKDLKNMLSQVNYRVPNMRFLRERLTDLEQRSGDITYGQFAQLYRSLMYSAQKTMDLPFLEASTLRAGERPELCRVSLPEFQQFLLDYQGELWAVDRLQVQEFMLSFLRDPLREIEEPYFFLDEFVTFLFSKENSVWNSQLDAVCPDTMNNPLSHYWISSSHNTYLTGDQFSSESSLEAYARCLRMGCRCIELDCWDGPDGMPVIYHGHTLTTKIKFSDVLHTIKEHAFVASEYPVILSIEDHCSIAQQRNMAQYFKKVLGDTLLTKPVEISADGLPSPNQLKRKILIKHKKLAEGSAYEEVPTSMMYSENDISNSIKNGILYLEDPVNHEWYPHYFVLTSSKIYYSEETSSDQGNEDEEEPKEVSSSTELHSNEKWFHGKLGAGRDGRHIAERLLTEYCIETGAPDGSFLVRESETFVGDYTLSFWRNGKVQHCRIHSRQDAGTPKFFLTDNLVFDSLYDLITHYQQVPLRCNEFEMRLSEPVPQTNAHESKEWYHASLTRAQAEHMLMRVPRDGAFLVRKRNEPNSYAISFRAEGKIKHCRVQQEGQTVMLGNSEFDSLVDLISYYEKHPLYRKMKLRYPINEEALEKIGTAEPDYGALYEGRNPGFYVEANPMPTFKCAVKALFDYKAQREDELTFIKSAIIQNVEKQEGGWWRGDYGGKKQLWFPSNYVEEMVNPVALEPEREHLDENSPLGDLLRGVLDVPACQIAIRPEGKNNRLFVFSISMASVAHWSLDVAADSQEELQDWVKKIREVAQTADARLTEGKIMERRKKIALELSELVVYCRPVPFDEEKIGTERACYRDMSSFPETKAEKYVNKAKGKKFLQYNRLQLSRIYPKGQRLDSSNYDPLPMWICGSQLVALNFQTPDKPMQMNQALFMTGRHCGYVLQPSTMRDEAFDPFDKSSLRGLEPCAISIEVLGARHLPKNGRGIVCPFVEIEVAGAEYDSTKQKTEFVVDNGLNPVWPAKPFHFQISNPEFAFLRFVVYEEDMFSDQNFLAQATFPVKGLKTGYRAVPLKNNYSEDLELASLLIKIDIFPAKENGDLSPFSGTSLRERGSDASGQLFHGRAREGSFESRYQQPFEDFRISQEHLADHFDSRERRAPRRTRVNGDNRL

[19] = ADAM10 inhibitors, peptide cleavage, dose response, biochemical, QFRET (AID 743254);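 also: ADAM10 enzyme with the DM2 quenched FRET peptide as substrate; EDANS fluorescence gain as the protease cuts the substrate; inhibitor potency against ADAM10 proteolytic activity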
[20] = target: Disintegrin and metalloproteinase domain-containing protein 17 (Homo sapiens, UniProt P78536); experiment: ADAM17 protease inhibitors, dose response, counter-screen for ADAM10 exosite inhibitor project, biochemical, quenched FRET substrate (AID 743253)
Sequence of Disintegrin and metalloproteinase domain-containing protein 17 (P78536 whole entry, the tested form may be a part): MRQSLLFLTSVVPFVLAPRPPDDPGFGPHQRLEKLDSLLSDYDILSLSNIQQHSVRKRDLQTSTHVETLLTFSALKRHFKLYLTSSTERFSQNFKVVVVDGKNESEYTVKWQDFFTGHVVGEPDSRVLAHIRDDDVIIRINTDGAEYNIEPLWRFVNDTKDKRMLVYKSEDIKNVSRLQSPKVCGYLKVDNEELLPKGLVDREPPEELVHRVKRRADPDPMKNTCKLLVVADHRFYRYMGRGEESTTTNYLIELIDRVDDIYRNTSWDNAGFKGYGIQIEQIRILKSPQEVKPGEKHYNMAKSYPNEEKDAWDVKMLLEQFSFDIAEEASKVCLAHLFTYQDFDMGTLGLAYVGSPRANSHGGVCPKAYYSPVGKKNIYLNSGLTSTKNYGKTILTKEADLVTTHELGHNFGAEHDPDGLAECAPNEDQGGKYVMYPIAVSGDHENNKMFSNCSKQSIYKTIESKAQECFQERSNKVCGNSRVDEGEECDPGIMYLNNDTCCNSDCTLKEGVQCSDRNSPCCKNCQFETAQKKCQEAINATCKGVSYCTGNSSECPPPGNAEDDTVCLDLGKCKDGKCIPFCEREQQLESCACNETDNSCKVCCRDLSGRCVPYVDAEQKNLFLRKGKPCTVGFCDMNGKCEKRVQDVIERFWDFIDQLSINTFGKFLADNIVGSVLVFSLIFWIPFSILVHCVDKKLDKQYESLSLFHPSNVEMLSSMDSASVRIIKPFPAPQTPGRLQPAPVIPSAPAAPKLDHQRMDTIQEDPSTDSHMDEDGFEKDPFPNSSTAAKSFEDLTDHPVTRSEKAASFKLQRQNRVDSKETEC

[21] = target: 1-phosphatidylinositol 4,5-bisphosphate phosphodiesterase beta-3 (Homo sapiens, UniProt Q01970); experiment: Fluorescence-based biochemical high throughput dose response assay to identify inhibitors of phospholipase C isozymes (PLC-B3).
Sequence of 1-phosphatidylinositol 4,5-bisphosphate phosphodiesterase beta-3 (Q01970 whole entry): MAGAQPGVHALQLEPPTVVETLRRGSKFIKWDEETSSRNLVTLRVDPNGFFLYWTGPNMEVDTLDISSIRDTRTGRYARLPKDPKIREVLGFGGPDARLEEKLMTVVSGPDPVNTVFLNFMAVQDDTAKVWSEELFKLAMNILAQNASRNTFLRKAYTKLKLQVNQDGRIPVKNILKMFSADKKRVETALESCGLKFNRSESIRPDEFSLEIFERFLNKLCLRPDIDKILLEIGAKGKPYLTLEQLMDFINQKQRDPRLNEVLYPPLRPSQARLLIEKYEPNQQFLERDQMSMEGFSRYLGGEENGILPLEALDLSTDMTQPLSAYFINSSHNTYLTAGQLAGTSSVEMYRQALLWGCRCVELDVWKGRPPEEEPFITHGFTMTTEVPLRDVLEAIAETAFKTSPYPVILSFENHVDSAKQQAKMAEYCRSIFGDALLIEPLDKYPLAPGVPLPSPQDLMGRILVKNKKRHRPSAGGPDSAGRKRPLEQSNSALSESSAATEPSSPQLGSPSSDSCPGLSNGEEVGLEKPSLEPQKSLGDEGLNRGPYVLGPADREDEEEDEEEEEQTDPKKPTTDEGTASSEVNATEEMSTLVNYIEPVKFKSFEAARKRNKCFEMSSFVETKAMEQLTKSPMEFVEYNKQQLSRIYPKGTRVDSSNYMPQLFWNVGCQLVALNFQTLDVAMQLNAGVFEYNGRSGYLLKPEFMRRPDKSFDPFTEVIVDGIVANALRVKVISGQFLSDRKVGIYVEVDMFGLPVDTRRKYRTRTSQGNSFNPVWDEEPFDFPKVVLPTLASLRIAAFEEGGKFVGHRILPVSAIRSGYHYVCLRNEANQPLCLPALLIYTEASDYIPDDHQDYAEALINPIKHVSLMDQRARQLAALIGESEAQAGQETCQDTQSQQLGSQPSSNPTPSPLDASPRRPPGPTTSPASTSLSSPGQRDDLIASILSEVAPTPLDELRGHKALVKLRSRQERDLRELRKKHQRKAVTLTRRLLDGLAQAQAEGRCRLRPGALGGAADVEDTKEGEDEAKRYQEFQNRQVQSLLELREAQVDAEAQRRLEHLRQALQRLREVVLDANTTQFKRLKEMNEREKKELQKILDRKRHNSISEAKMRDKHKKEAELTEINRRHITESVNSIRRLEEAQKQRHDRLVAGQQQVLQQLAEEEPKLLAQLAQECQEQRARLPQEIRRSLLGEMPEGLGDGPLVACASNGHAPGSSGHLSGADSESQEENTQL

[22] = target: Metabotropic glutamate receptor 3 (Rattus norvegicus, UniProt P31422); experiment: mGlu3 negative allosteric modulator potency, dose response, HEK/GIRK cells, thallium flux, rat (AID 651839); assay type: functional
Sequence of Metabotropic glutamate receptor 3 (P31422 whole entry): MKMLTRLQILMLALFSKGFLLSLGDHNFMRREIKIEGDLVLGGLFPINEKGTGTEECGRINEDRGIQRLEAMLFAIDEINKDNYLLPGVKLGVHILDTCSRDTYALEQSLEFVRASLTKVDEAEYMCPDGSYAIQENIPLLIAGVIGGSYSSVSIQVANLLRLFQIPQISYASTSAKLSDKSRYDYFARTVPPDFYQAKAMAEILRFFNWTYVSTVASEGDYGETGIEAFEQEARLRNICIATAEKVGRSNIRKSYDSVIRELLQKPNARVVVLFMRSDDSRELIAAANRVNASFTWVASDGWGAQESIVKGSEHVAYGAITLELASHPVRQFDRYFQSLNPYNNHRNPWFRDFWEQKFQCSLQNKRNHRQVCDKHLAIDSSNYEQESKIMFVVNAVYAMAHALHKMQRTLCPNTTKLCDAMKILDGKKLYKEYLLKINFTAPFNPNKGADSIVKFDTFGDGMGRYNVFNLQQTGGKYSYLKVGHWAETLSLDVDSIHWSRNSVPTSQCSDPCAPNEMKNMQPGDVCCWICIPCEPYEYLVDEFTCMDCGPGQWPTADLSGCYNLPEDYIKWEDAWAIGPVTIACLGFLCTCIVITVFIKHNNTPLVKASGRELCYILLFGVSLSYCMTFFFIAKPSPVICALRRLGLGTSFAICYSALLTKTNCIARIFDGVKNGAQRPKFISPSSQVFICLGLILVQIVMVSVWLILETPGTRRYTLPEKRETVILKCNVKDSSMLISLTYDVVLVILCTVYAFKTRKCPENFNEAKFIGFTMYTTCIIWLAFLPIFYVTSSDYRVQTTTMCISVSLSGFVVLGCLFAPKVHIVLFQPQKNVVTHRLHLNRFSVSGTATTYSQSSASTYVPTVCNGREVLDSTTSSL

[23] = Mycobacterium tuberculosis BioA enzyme inhibitor Measured in Biochemical System Using Plate Reader - 2163-02_Inhibitor_Dose_DryPowder_Activity.

T1 sequence (Q61009 whole entry): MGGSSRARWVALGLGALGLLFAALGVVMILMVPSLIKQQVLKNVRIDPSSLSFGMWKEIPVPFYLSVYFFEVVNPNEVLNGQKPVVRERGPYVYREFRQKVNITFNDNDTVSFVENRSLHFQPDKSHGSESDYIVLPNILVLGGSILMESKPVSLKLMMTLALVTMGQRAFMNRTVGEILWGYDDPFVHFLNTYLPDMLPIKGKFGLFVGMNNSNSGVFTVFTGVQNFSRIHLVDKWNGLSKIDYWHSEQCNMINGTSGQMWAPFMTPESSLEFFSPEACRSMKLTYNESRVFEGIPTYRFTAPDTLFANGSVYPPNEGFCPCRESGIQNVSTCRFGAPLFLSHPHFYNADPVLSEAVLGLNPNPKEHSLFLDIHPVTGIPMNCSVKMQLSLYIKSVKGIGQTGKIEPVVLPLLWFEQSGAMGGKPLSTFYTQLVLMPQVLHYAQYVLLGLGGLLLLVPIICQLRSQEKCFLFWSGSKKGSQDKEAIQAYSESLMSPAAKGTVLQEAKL

O=C(O)CC(C(=O)Nc1cccc(C(F)(F)F)c1)C1CCCO1 (centres undefined)
AC50 [1]: 45.4 µM (active) | AC50 [2]: 34.3 µM (active)

CCCCNc1cc(C)nc(NCc2ccccc2)n1
AC50 [3]: 1.19 µM (active) | AC50 [4]: 7.51 µM (active) | EC50 [5]: 3.96 µM (active) | AC50 [6]: 3.36 µM (active) | AC50 [7]: 10.6 µM (active) | IC50 [8]: > 20 µM (inactive) | AC50 [9]: 31.1 µM (active) | EC50 [10]: 4.04 µM (active) | AC50 [11]: 13.8 µM (active) | AC50 (INS1): 2.49 µM (active) | AC50 [12]: 0.719 µM (active)

O=S(=O)(O)c1cc(O)c(N=Nc2ccc(O)cc2O)c2ccccc12
IC50 [13]: 20.5 µM (inactive) | AC50 (HeLa): 32.4 µM (active) | AC50 (ORF 73): 22.2 µM (active) | AC50 [14]: 7.35 µM (active) | IC50 (Nonstructural protein 1): 4.32 µM (active) | AC50 (Caspase-6): 2.16 µM (active) | CC50 [15]: 100 µM (active) | IC50 [16]: 28.8 µM (active)

CCOc1ccccc1NC(=O)c1ccc2ccccc2c1
AC50 [17]: > 52 µM (inactive)

Cc1c(C(=O)NCc2ccc(Cl)c(Cl)c2)sc(=O)n1Cc1cccc(F)c1
AC50 (cells): > 52 µM (inactive)

CN1C(=O)c2cc(NC(=O)Nc3ccccc3F)ccc2OC[C@H]2O[C@@H](CC(=O)NCc3ccc(-c4ccccc4)cc3)CC[C@@H]21
IC50 [18]: > 122 µM (inactive) | IC50 [19]: > 69.5 µM (inactive) | IC50 [20]: > 69.5 µM (inactive) | IC50 [21]: > 122 µM (inactive)

O=C(c1ccc(C#Cc2ccc3c(c2)OCO3)cc1)N1CCCC(CO)C1 (centres undefined)
IC50 [22]: 7.26 µM (active)

Cc1ccc(/C=C(\CC(=O)O)c2nc3ccccc3s2)cc1[N+](=O)[O-]
AC50 [23]: 14.3 µM (active)
